Publication PMC9598822, “Increased Susceptibility of Mycobacterium tuberculosis to Ethionamide by Expressing PPs-Induced Rv0560c” (Antibiotics, 2022)

Biological target: Rv2887 (Mycobacterium tuberculosis, UniProt P9WME9)
Assay: biochemical

Chain of Rv2887 (P9WME9 whole entry): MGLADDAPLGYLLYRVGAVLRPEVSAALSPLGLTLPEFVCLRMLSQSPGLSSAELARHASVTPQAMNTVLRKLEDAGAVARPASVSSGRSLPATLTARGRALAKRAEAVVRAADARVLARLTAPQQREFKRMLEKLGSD

COC(=O)[C@@H]1CCC(=O)N1Cc1cc2ccc(OC)cc2c2cc(OC)c(OC)cc12 [PP1S]
Kd: 274 µM

CCCCOc1ccc2cc(CN3C(=O)CC[C@H]3C(=O)OC)c3cc(OC)c(OC)cc3c2c1 [PP2S]
Kd: 250 µM
